In ChEMBL document CHEMBL1201862, “PubChem BioAssay data set” (2004):
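Dose response: 5 concentrations. Exposure: 48 h. Format: 96-well plates. Endpoint: linear interpolation; highest concentration if not reached. At the GI50, growth is halved.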 Active and inactive are the calls of the source. Rule as the data show it: active = GI50 up to about 1.1 µM and inactive = higher.

What was measured:
Test in all cases: NCI tumour cell line growth inhibition, 48 h
SN12C = tested on: SN12C
A498 = tested on: A498
MDA-MB-231 = tested on: MDA-MB-231
T47D = tested on: T47D
OVCAR-4 = tested on: OVCAR-4
SK-MEL-28 = tested on: SK-MEL-28
PC-3 = tested on: PC-3
UACC-62 = tested on: UACC-62
NCI-H460 = tested on: NCI-H460
MCF7 = tested on: MCF7
EKVX = tested on: EKVX
SF-295 = tested on: SF-295
MDA-N = tested on: MDA-N
BT-549 = tested on: BT-549
UO-31 = tested on: UO-31
CCRF-CEM = tested on: CCRF-CEM
Hs-578T = tested on: Hs-578T
SK-MEL-5 = tested on: SK-MEL-5
786-0 = tested on: 786-0
SNB-75 = tested on: SNB-75

SMILES | GI50 (SN12C) | GI50 (A498) | GI50 (MDA-MB-231) | GI50 (T47D) | GI50 (OVCAR-4) | GI50 (SK-MEL-28) | GI50 (PC-3) | GI50 (UACC-62) | GI50 (NCI-H460) | GI50 (MCF7) | GI50 (EKVX) | GI50 (SF-295) | GI50 (MDA-N) | GI50 (BT-549) | GI50 (UO-31) | GI50 (CCRF-CEM) | GI50 (Hs-578T) | GI50 (SK-MEL-5) | GI50 (786-0) | GI50 (SNB-75)
CCCN(CCCCC(NC(C)=O)C(=O)NCc1ccccc1)C(=O)N(CCCl)N=O (stereo not given) | 58.3 µM (inactive) | > 86.9 µM (inactive) | > 100 µM (inactive) | 78.9 µM (inactive) | > 100 µM (inactive) | > 100 µM (inactive) | 32.8 µM (inactive) | 11.7 µM (inactive) | 10.1 µM (inactive) | 40 µM (inactive) | > 100 µM (inactive) | 20.9 µM (inactive) | > 100 µM (inactive) | 75.7 µM (inactive) | 84.1 µM (inactive) | 54.6 µM (inactive) | 42.1 µM (inactive) | > 77.8 µM (inactive) | 2.33 µM (inactive) | 27.1 µM (inactive)
Oc1cc(-c2cccc(F)c2)nc2cc3c(cc12)OCO3 | 0.129 µM (active) | 0.157 µM (active) | 0.141 µM (active) | > 100 µM (inactive) | 1.26 µM (inactive) | 0.0439 µM (active) | 0.0473 µM (active) | 0.0345 µM (active) | 0.07 µM (active) | 0.108 µM (active) | 6.56 µM (inactive) | 0.102 µM (active) | 0.0111 µM (active) | 0.2 µM (active) | 0.124 µM (active) | 0.0507 µM (active) | 0.0226 µM (active) | 0.03 µM (active) | 0.0441 µM (active) | 0.0334 µM (active)
N#CC1=C(N)OC2=C(CCCc3ccc([N+](=O)[O-])cc32)C1c1ccc(Cl)cc1 (stereo not given) | 2.74 µM (inactive) | 5.73 µM (inactive) | 7.91 µM (inactive) | 3.78 µM (inactive) | 3.3 µM (inactive) | 25.8 µM (inactive) | 3.94 µM (inactive) | 5.02 µM (inactive) | 3.83 µM (inactive) | 4.03 µM (inactive) | 4.43 µM (inactive) | 11 µM (inactive) | 6.7 µM (inactive) | 17.4 µM (inactive) | 3.3 µM (inactive) | 4.39 µM (inactive) | 17.1 µM (inactive) | 4.38 µM (inactive) | 4.84 µM (inactive) | 11.8 µM (inactive)
Fc1ccccc1C1SCC2=Nc3ccccc3CN21 (stereo not given) | > 100 µM (inactive) | > 100 µM (inactive) | > 100 µM (inactive) | > 100 µM (inactive) | > 100 µM (inactive) | > 100 µM (inactive) | > 100 µM (inactive) | 99.8 µM (inactive) | > 100 µM (inactive) | 80.2 µM (inactive) | > 100 µM (inactive) | 70.8 µM (inactive) | > 100 µM (inactive) | > 100 µM (inactive) | > 100 µM (inactive) | > 100 µM (inactive) | > 100 µM (inactive) | 89.7 µM (inactive) | 95.3 µM (inactive) | > 100 µM (inactive)
CNCC(SC)c1ccc(O)c(O)c1 (stereo not given) | 21.5 µM (inactive) | > 100 µM (inactive) | 28.2 µM (inactive) | 23.6 µM (inactive) | 17 µM (inactive) | 53.2 µM (inactive) | 69.2 µM (inactive) | 41.6 µM (inactive) | 16.7 µM (inactive) | 29.2 µM (inactive) | 15.8 µM (inactive) | > 100 µM (inactive) | 18.5 µM (inactive) | 16.6 µM (inactive) | 43 µM (inactive) | 2.67 µM (inactive) | 66.1 µM (inactive) | 52.8 µM (inactive) | 18.6 µM (inactive) | 28.8 µM (inactive)
CC(=O)O[C@H]1C(=O)[C@@]2(C)[C@H]([C@H](OC(=O)c3ccccc3)[C@]3(O)C[C@H](OC(=O)[C@H](O)[C@@H](NC(=O)c4cccc(N=[N+]=[N-])c4)c4ccccc4)C(C)=C1C3(C)C)[C@]1(OC(C)=O)CO[C@@H]1C[C@@H]2O | 0.0164 µM (active) | 0.0408 µM (active) | 0.0149 µM (active) | 0.0338 µM (active) | 6.05 µM (inactive) | 0.425 µM (active) | 0.0047 µM (active) | 0.00731 µM (active) | 0.00859 µM (active) | < 0.0025 µM (active) | > 7.59 µM (inactive) | 0.0247 µM (active) | < 0.0025 µM (active) | 0.0364 µM (active) | 1.33 µM (inactive) | 0.00331 µM (active) | < 0.0025 µM (active) | 0.00507 µM (active) | 0.0179 µM (active) | 0.0173 µM (active)
C=C1C(=O)O[C@@H]2[C@H]1C[C@H](I)[C@@]1(C)CC[C@H](O1)[C@](C)(I)CCCC(C)[C@@H]2O (stereo not given in full) | 4.98 µM (inactive) | 14.6 µM (inactive) | 4.22 µM (inactive) | 3.79 µM (inactive) | 6.32 µM (inactive) | 6.11 µM (inactive) | 6.03 µM (inactive) | 4.92 µM (inactive) | 14.5 µM (inactive) | 2.29 µM (inactive) | 8.95 µM (inactive) | 16 µM (inactive) | 2.7 µM (inactive) | 7.23 µM (inactive) | 3.66 µM (inactive) | 0.384 µM (active) | 14.6 µM (inactive) | 3.29 µM (inactive) | 1.49 µM (inactive) | 2.33 µM (inactive)
N#Cc1nc(C#N)n(C(=O)c2ccccc2)c1NC(=O)c1ccccc1 | > 100 µM (inactive) | > 100 µM (inactive) | > 100 µM (inactive) | > 100 µM (inactive) | > 100 µM (inactive) | > 100 µM (inactive) | > 100 µM (inactive) | > 100 µM (inactive) | > 100 µM (inactive) | > 100 µM (inactive) | > 100 µM (inactive) | > 100 µM (inactive) | > 100 µM (inactive) | > 100 µM (inactive) | > 100 µM (inactive) | > 100 µM (inactive) | > 100 µM (inactive) | > 100 µM (inactive) | > 100 µM (inactive) | > 100 µM (inactive)
O=c1c(-c2ccc(O)cc2)coc2cc(OC3OC(CO)C(O)C(O)C3O)cc(O)c12 (stereo not given) | > 100 µM (inactive) | > 100 µM (inactive) | > 100 µM (inactive) | > 10 µM (inactive) | > 10 µM (inactive) | > 10 µM (inactive) | 63.8 µM (inactive) | 81.3 µM (inactive) | 46.9 µM (inactive) | > 10 µM (inactive) | 38.8 µM (inactive) | 92.7 µM (inactive) | > 100 µM (inactive) | 58.5 µM (inactive) | 22.2 µM (inactive) | 38.8 µM (inactive) | 61.1 µM (inactive) | > 10 µM (inactive) | 75.5 µM (inactive) | 35.7 µM (inactive)
CC1CNC(c2cccc(OCc3ccc(COc4cccc(C5=NC(C)CN5)c4)cc3)c2)=N1 (stereo not given) | 19.5 µM (inactive) | > 100 µM (inactive) | 42.3 µM (inactive) | 35.9 µM (inactive) | 49.7 µM (inactive) | 61.7 µM (inactive) | 28.9 µM (inactive) | 99.5 µM (inactive) | 22.5 µM (inactive) | 28.2 µM (inactive) | 45.8 µM (inactive) | 66.8 µM (inactive) | 38.6 µM (inactive) | 61.5 µM (inactive) | > 100 µM (inactive) | 18.9 µM (inactive) | 20.2 µM (inactive) | 22.9 µM (inactive) | 34.1 µM (inactive) | 22.2 µM (inactive)
Cc1nc2ccccc2c(=O)n1NC(=S)Nc1ccc(Cl)cc1[N+](=O)[O-] | > 100 µM (inactive) | > 100 µM (inactive) | > 100 µM (inactive) | > 100 µM (inactive) | > 100 µM (inactive) | > 100 µM (inactive) | > 100 µM (inactive) | > 100 µM (inactive) | > 100 µM (inactive) | > 100 µM (inactive) | 36.2 µM (inactive) | > 100 µM (inactive) | > 100 µM (inactive) | > 100 µM (inactive) | > 55.5 µM (inactive) | > 100 µM (inactive) | > 100 µM (inactive) | > 100 µM (inactive) | > 100 µM (inactive) | > 78.3 µM (inactive)
